Test [1] concerns guinea pig tracheal smooth muscle. Briefly: Tracheal relaxant activity of VIP analogs on isolated guinea pig tracheal rings. The settings on record: cumulative concentration response, relaxation as % of maximum response to VIP (10^-6 M=100%), three tissues pooled, linear regression. The test is classed as cell-based. The method, boiled down: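 Male guinea pig tracheal rings under 1.5 g resting tension in Krebs at 37° C, 95% O2/5% CO2, isometric tension. Cumulative concentration-response curves; relaxation as % of response to 10^-6 M VIP added at end; three tissues pooled, EC50 by linear regression.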

The subject of test [2] is guinea pigs. Kind of test: In vivo bronchodilator activity by tracheal instillation against histamine challenge. More on the design: species or system guinea pig. The settings on record: anesthetized male guinea pigs, inhibition of histamine (i.v.)-induced rise in tracheal pressure. The essentials:
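Urethane-anaesthetised male Hartley guinea pigs (400-600 g) received compound in water by intratracheal instillation, then were paralysed, ventilated and challenged with histamine […] i.v. Tracheal pressure change gave % inhibition (≥3 animals/group); ED50 from log dose-response; duration as time until inhibition fell to 40%.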

Where a SMILES comes first, the peptide text is derived from it. Bridges are numbered along the chain shown (N, C = ends). [ ]: non-standard residue; d: D form. NMeA = CN[C@@H](C)C(=O)O; Nle = CCCC[C@H](N)C(=O)O

By EC50 is commonly meant the concentration giving half of the maximal effect. In test [1], `CCCC[C@H](NC(=O)[C@H](CCC(N)=O)NC(=O)[C@H](CCCCN)NC(=O)[C@H](CCCNC(=N)N)NC(=O)[C@H](CC(C)C)NC(=O)[C@H](CCCCN)NC(=O)[C@@H](NC(=O)[C@H](Cc1ccc(O)cc1)NC(=O)[C@H](CC(N)=O)NC(=O)[C@H](CCC(=O)O)NC(=O)[C@@H](NC(=O)[C@H](Cc1ccccc1)NC(=O)[C@@H](NC(=O)[C@H](C)NC(=O)[C@H](CC(=O)O)NC(=O)[C@H](CO)NC(=O)[C@H](Cc1c[nH]cn1)NC(C)=O)C(C)C)[C@@H](C)O)[C@@H](C)O)C(=O)N[C@@H](C)C(=O)N[C@@H](C)C(=O)N[C@@H](CCCCN)C(=O)N[C@H]1CCCCNC(=O)C[C@@H](C(=O)N[C@@H](CC(C)C)C(=O)N[C@@H](CCCCN)C(=O)N[C@@H](CCCCN)C(=O)N[C@@H](C)C(=O)N[C@@H](C)C(=O)N[C@@H](C)C(N)=O)NC(=O)[C@H](CC(N)=O)NC(=O)[C@H](CC(C)C)NC(=O)[C@H](Cc2ccc(O)cc2)NC1=O` [SEQ ID NO:42, Ac-[Glu^8,Lys^12,Nle^17,Ala^19,Asp^25,Leu^26,Lys^27,28,Ala^29-31]-VIP cyclo (Lys^21 →Asp^25)] (Ac-HSDAVFTENYTKLRKQ[Nle]AAKKYLNDLKKAAA-NH2; lactam 21-25) showed an EC50 of 0.61 nM. The “Bronchodilator activity of VIP analogs in guinea pigs, ED50” value in test [2] is given as 0.072 μg.
`CCCC[C@H](NC(=O)[C@H](CCC(N)=O)NC(=O)[C@H](CCCCN)NC(=O)[C@H](CCCNC(=N)N)NC(=O)[C@H](CC(C)C)NC(=O)[C@H](CCCCN)NC(=O)[C@@H](NC(=O)[C@H](Cc1ccc(O)cc1)NC(=O)[C@H](CC(N)=O)NC(=O)[C@H](CCC(=O)O)NC(=O)[C@@H](NC(=O)[C@H](Cc1ccccc1)NC(=O)[C@@H](NC(=O)[C@H](C)NC(=O)[C@H](CC(=O)O)NC(=O)[C@H](C)NC(=O)[C@H](Cc1c[nH]cn1)NC(C)=O)C(C)C)[C@@H](C)O)[C@@H](C)O)C(=O)N[C@@H](C)C(=O)N[C@@H](C)C(=O)N[C@@H](CCCCN)C(=O)N[C@H]1CCCCNC(=O)C[C@@H](C(=O)N[C@@H](CC(C)C)C(=O)N[C@@H](CCCCN)C(=O)N[C@@H](CCCCN)C(=O)N[C@@H](C)C(=O)N[C@@H](C)C(=O)N[C@@H](C)C(N)=O)NC(=O)[C@H](CC(N)=O)NC(=O)[C@H](CC(C)C)NC(=O)[C@H](Cc2ccc(O)cc2)NC1=O` [SEQ ID NO:43, Ac-[Ala^2,Glu^8,Lys^12,Nle^17,Ala^19,Asp^25,Leu^26,Lys^27,28,Ala^29-31]-VIP cyclo (Lys^21 →Asp^25)] (Ac-HADAVFTENYTKLRKQ[Nle]AAKKYLNDLKKAAA-NH2; lactam 21-25) registered an EC50 in test [1] of 0.55 nM. Further, in test [2], the “Bronchodilator activity of VIP analogs in guinea pigs, ED50” value worked out at 0.14 μg.
For `CCCC[C@H](NC(=O)[C@H](CCC(N)=O)NC(=O)[C@H](CCCCN)NC(=O)[C@H](CCCNC(=N)N)NC(=O)[C@H](CC(C)C)NC(=O)[C@H](CCCCN)NC(=O)[C@@H](NC(=O)[C@H](Cc1ccc(O)cc1)NC(=O)[C@H](CC(N)=O)NC(=O)[C@H](CCC(=O)O)NC(=O)[C@@H](NC(=O)[C@H](Cc1ccccc1)NC(=O)[C@@H](NC(=O)[C@H](C)NC(=O)[C@H](CC(=O)O)NC(=O)[C@H](CO)NC(=O)[C@H](C)N(C)C(C)=O)C(C)C)[C@@H](C)O)[C@@H](C)O)C(=O)N[C@@H](C)C(=O)N[C@@H](C)C(=O)N[C@@H](CCCCN)C(=O)N[C@H]1CCCCNC(=O)C[C@@H](C(=O)N[C@@H](CC(C)C)C(=O)N[C@@H](CCCCN)C(=O)N[C@@H](CCCCN)C(N)=O)NC(=O)[C@H](CC(N)=O)NC(=O)[C@H](CC(C)C)NC(=O)[C@H](Cc2ccc(O)cc2)NC1=O` [SEQ ID NO:44, Ac-[N-Me-Ala^1,Glu^8,Lys^12,Nle^17,Ala^19,Asp^25,Leu^26,Lys^27,28]-VIP cyclo (Lys^21 →Asp^25)] (Ac-[NMeA]SDAVFTENYTKLRKQ[Nle]AAKKYLNDLKK-NH2; lactam 21-25) the same measures were 0.36 nM and 0.097 μg.

The values above are taken from patent publication US5677419A, “Cyclic vasoactive peptide analogs” (Hoffmann-La Roche Inc., priority 1994, dated 1997).
